Publication PMC12010006, “Subnanomolar MAS-related G protein-coupled receptor-X2/B2 antagonists with efficacy in human mast cells and disease models” (Signal Transduction and Targeted Therapy, 2025)

Legend:
MRGPRX2 [1] = molecular target: T1, MRGPRX2 (Homo sapiens, UniProt Q96LB1); assay: Surface expression of CD107a and CD63 (flow cytometry), LAD2 cells activated with SP; type: cell-based; settings: 30 nM, 5 min; SP 300 nM
T1 sequence (Q96LB1 1-330): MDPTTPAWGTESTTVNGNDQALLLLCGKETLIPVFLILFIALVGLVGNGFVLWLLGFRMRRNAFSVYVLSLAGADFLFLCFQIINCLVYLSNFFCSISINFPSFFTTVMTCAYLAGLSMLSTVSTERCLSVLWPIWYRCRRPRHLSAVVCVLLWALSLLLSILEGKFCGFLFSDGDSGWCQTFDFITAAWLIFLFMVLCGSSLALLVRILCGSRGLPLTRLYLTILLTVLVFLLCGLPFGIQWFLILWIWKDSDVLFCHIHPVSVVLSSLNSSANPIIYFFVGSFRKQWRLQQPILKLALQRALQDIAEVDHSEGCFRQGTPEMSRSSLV
Procedure: The granule-associated proteins CD107a and CD63 externalize in the process of degranulation. Their quantification by flow cytometry is a reliable marker of mast cell activation, which is often used for the diagnosis of allergies and anaphylaxis in mast cell activation tests.[49],[50] Thus, the expression of CD107a and CD63 on the cell surface was determined to confirm the effects of PSB-172656 on SP-induced MRGPRX2-mediated degranulation. […] In addition to MRPGRX2, LAD2 cells also express a GPCR that is specifically activated by the complement component C3a.[51] Both receptors can activate Gαi/o proteins to promote MC activation.[48],[52]
MC degranulation was also measured by determining the cell surface expression of CD107a (Lysosomal-Associated Membrane Protein-1, LAMP-1) and CD63 (LAMP-3) after agonist stimulation.[48] LAD2 cells were preincubated with PSB-172656 or vehicle control for 5 min at 37 °C, then activated with SP (0.3 μM) and or C3a (3 nM) for 5 min at 37 °C. After 5 min of incubation, cells were fixed with 500 µL of 4% fixation buffer (Biolegend, Catalog 420801) for 15 min at room temperature. […] Cell surface expression of CD107a and CD63 was measured from the zombie-yellow negative population by a BD LSR II flow cytometer (San Jose, CA, USA) and analyzed by FlowJo software version 10.7.2 (Tree Star Inc., Ashland, OR, USA).[48],[50]

mouse tracheal rings = assay: Isometric force measurements of mouse tracheal rings on wire-myograph; settings: 100 µM, 10 min pre-treatment, C48/80 30 µg/mL
Procedure: The MRGPRX2/MRGPRB2 agonist C48/80 was previously reported to induce tracheal contractions in WT mice, a response that was absent in mice with a frameshift mutation in Mrgprb2.[53] We investigated whether this effect could be blocked by PSB-172656, the potent MRGPRX2/MRGPRB2 antagonist. Therefore, the force of tracheal contractions induced by C48/80 (30 µg/mL) in mouse tracheal rings was measured using a wire myograph, confirming the compound’s ability to […] tracheal contractions (Fig. 7c, d).
Isometric force measurements were performed as described previously.[68] In detail, tracheas of C57BL/6 mice were isolated and cut into rings in cold low-calcium physiological saline solution (PSS), containing 118 mM NaCl, 5 mM KCl, 1.2 mM MgCl2, 1.5 mM NaH2PO4, 0.16 mM CaCl2, 10 mM glucose and 24 mM Hepes (pH 7.4). Rings were mounted on a wire-myograph (Multi Myograph 620 M, Danish Myo Technology, Aarhus, Denmark) and pre-stretched to 5 mN in PSS, containing 118 mM NaCl, 5 mM KCl, 1.2 mM MgCl2, 1.5 mM NaH2PO4, 1.6 mM CaCl2, 10 mM glucose, and 24 mM Hepes (pH 7.4). After equilibration for 20 min, maximal constriction was induced by methacholine (MCh, 10 μM, A2251, Sigma-Aldrich, Germany). […] Force amplitudes were always analyzed at the strongest contraction of tracheal rings. […] Statistical significance was determined by an unpaired Student’s t-test, *P < 0.05.

MRGPRX2 [2] = molecular target: T1, MRGPRX2; assay: TRUPATH Gαq dissociation assay, LN229 cells expressing MRGPRX2; type: cell-based; set-up: expressed in transfected cells; host or cells: LN229 human glioblastoma cells; plasmid pLXSN-MRGPRX2 (Addgene #213960); settings: 100 nM, preincubation
Procedure: Fig. 3 Biological characterization of PSB-172656. a Selectivity of PSB-172656 (100 nM) for MRGPRX2 over MRGPRX1, MRGPRX3, and MRGPRX4 measured in β-arrestin assays utilizing β-arrestin-CHO cells with recombinant expression of the respective receptor. MRGPRX1 was activated by BAM-22P (8.5 µM),[19] MRGPRX2 was activated by CST-14 (1 µM), MRGPRX3 was activated by PSB-20294 (10 µM), MRGPRX4 was activated by PSB-18061 (2.6 µM).[44] Data represent mean values ± SEM of 3-4 biological replicates, performed in duplicates. […] Data are means ± SEM of 3 biological replicates, in duplicates. Statistical significance was determined by one-way ANOVA (Tukey’s multiple comparison) test (ns P > 0.05). […] Data are means ± SEM of 3 biological replicates, performed in duplicates. e Shift assay to determine inhibition type of PSB-172656 versus CST-14. […] Extrapolated data were not used for analysis but only shown for a comprehensive view. f Schild plot for the effect of PSB-172656 on the concentration-response curves for CST-14. […]
To further investigate PSB-172656 signaling, direct activation of the relevant G protein subunits, Gαq and Gαi1,[32] was studied. This was assessed using G protein dissociation assays and LN229 cells stably overexpressing MRGPRX2 while transiently expressing the investigated G protein (Fig. 3c, d).[47]

- effect on SP-induced expression of CD107a and CD63 on the cell surface (MRGPRX2 [1]): completely prevented
- inhibition of CST-14-induced Gαq dissociation (MRGPRX2 [2]): completely inhibited
Structure (SMILES): CCc1c(C(C)C)[nH]c2nc3cc(F)c(F)cc3n2c1=O [Compound 24, 3-ethyl-7,8-difluoro-2-isopropylbenzo[4,5]imidazo [1,2-a] pyrimidin-4(1H)-one]
- effect on C48/80-induced tracheal contractions (mouse tracheal rings; listed as PSB-172565): potently blocks tracheal contractions
- effect on C48/80-induced tracheal contractions (mouse tracheal rings; listed as PSB-172656): effectively blocked the contractions
